Test results taken from US20050222085A1, “Quaternised ammonium cyclodextrin compounds” (priority 2002, published 2005).

Legend:
Assay in all cases: Preservative effectiveness test
Assay type in all cases: cell-based
[1] = system: Escherichia coli ATCC 8739; details: same solution
Protocol: (§1) 0.2 g of QA-beta-CD (QA-beta-CD=3-(trimethylammonio)-2-hydroxypropyl-beta-cyclodextrin chloride, empiric formula: (C6H10-nO5)7(C6H15ONCl)n n=2-5. are added to 170 ml water (nanopure). Then 10.10 g of Sorbitol and 0.2 g of Disodium edetate are added and the pH is adjusted to a value of 7.0-7.4 and water added to make up 200 ml of resulting solution. The solution is filtered through a Corning bottle top filter unit 0.22 μm CA under sterile conditions. The solution has a pH of 7.35 and an osmolality of 307 mOsm/kg (270-330).
(§2) Samples of the solution are inoculated with Escherichia coli ATCC 8739; Pseudomonas aeruginosa ATCC 9027, Staphyloccocus aureus ATCC 6538; Candida albicans ATCC 10231 and Aspergillus niger ATCC 16404, respectively and assayed for presence/growth at the times given in Table 2.

[2] = system: Candida albicans ATCC 10231; details: same solution
Protocol: as §1, §2

[3] = system: Staphyloccocus aureus ATCC 6538; details: same solution
Protocol: as §1, §2

[4] = system: Aspergillus niger ATCC 16404; details: Time 28 d; same solution
Protocol: as §1, §2

[5] = system: Pseudomonas aeruginosa ATCC 9027; details: same solution
Protocol: as §1, §2

Substance: 3-(trimethylammonio)-2-hydroxypropyl-beta-cyclodextrin chloride [QA-beta-CD]
- presence/growth of Escherichia coli ATCC 8739 ([1]; Time 6 h): <10^2
- presence/growth of Escherichia coli ATCC 8739 ([1]; Time 24 h): <10^2
- presence/growth of Escherichia coli ATCC 8739 ([1]; Time 7 d): <10^2
- presence/growth of Escherichia coli ATCC 8739 ([1]; Time 28 d): <10^2
- presence/growth of Candida albicans ATCC 10231 ([2]; Time 7 d): <10^2
- presence/growth of Candida albicans ATCC 10231 ([2]; Time 14 d): <10^2
- presence/growth of Candida albicans ATCC 10231 ([2]; Time 28 d): <10^2
- presence/growth of Staphyloccocus aureus ATCC 6538 ([3]; Time 24 h): <10^2
- presence/growth of Staphyloccocus aureus ATCC 6538 ([3]; Time 7 d): <10^2
- presence/growth of Staphyloccocus aureus ATCC 6538 ([3]; Time 28 d): <10^2
- presence/growth of Aspergillus niger ATCC 16404 [4]: 2. 10^2
- presence/growth of Pseudomonas aeruginosa ATCC 9027 ([5]; Time 6 h): <10^2
- presence/growth of Pseudomonas aeruginosa ATCC 9027 ([5]; Time 24 h): <10^2
- presence/growth of Pseudomonas aeruginosa ATCC 9027 ([5]; Time 7 d): <10^2
- presence/growth of Pseudomonas aeruginosa ATCC 9027 ([5]; Time 28 d): <10^2
